Where “and” joins values, the source holds several entries; their conditions need not be identical. Equal entries are not always repeated.
Experiments:
Format in all cases: in vivo, human
[1] = tested on: IFN-γ; experiment: Example 2: plasma IFN-γ level by capture ELISA after treatment; details: for Median IFN-γ after treatment / % reduction in IFN-γ levels: plasma; for Median IFN-γ after treatment: 3 days after end of ARA treatment (18 days after PZQ); for % reduction in IFN-γ levels: after treatment vs baseline
Procedure: (§1) The children were divided randomly into three groups whereby the first group of children were given a single oral dose of Praziquantel (PZQ) (40 mg/kg body weight) on the first day of treatment and a placebo was given for the next three weeks (5 doses/week) (“PZQ-Placebo Treatment”). The PZQ was Distocide (Epico, El-Asher-Men-Ramadan City, Egypt). The placebo was 1 g VegCap, containing corn-soy (DSM Nutritional Products, Columbia, Md.). The second group of children received ARA (10 mg/kg body weight/day) for 15 days over three weeks (5 days/week) (“ARA Treatment”). The ARA was 1 g VegCap (DSM) containing approximately 395 mg ARA/capsule. The third group of children were given Praziquantel (40 mg/kg body weight) in the first day of treatment and then received 15 doses of ARA (10 mg/kg/day; 5 doses/week) (“PZQ-ARA Treatment”).
(§2) Approximately 10 ml blood were obtained from each child 2-3 days before the start of the treatment and 3 days after the end of the ARA (or ARA+PZQ) treatment, corresponding to 18 days after PZQ-only treatment. Stool samples were obtained from each child on 3 consecutive days 1 week after the end of the ARA treatment (corresponding to 4 weeks after the PZQ-only treatment) and 6 weeks after the end of the ARA treatment (corresponding to 9 weeks after the PZQ-only treatment). Epg was assessed on each stool sample.
(§3) Plasma was retrieved from heparinized blood following centrifugation at 400 g for 20 minutes and stored at −76° C. until assayed by capture enzyme-linked immunosorbent assay (ELISA) for levels of IL-10 and IFN-γ (ELISA MAX™ Set, BioLegend, San Diego, Calif.) according to the manufacturer's protocol.

[2] = tested on: IL-10; experiment: Example 2: plasma IL-10 level by capture ELISA after treatment; details: for Median IL-10 after treatment / % reduction in IL-10 levels: plasma; for Median IL-10 after treatment: 3 days after end of ARA treatment (18 days after PZQ); for % reduction in IL-10 levels: after treatment vs baseline
Procedure: as §1, §2, §3

[3] = tested on: Schistosoma mansoni; experiment: Example 2: stool egg counts (epg) and cure rate in infected school children, El Kafr Sheikh; set-up: % epg reduction: concentration or dose not given beside the values
Procedure: School children from El Kafr Sheikh were screened similar to those school children in Example 1 above.
as §1, §2
(§4) Subjects having initial baseline epg counts <100 were classified as having low infection. Subjects having initial baseline epg counts >100 but <400 were classified as having moderate infection. Subjects having initial baseline epg counts >400 were classified as having high infection.

[4] = tested on: Schistosoma mansoni; experiment: Example 1: stool egg counts (Kato-Katz, epg) and cure rate in infected school children, Menoufiya; details: for % cure rate: children with 0 epg after week 9
Procedure: Approximately 2000 school children in villages of three districts in the Menoufiya governorate located about 100 km north of Cairo, Egypt were screened. Two microscopic slides of stool samples were examined for each child on 3 consecutive days by the Kato-Katz method and egg counts per gram (epg) were recorded. 66 children, 44 males and 22 females, 6-15 years old (mean±SD=11.7±1.6), with weight range of 25-52 kg (mean±SD=37.8±8.6), and epg of 24-384 were selected as test subjects. 20 sex, age, and social conditions-matched, parasite-free children were used as controls.
The 66 children were divided randomly into three groups whereby the first group of 20 children were given a single oral dose of Praziquantel (PZQ) (40 mg/kg body weight) on the first day of treatment and a placebo was given for the next three weeks (5 doses/week) (“PZQ-Placebo Treatment”). The PZQ was Distocide (Epico, El-Asher-Men-Ramadan City, Egypt). The placebo was 1 g VegCap, containing corn-soy (DSM Nutritional Products, Columbia, Md.). The second group of 23 children received ARA (10 mg/kg body weight/day) for 15 days over three weeks (5 days/week) (“ARA Treatment”) The ARA was 1 g VegCap (DSM) containing approximately 395 mg ARA/capsule. The third group of 23 children were given Praziquantel (40 mg/kg body weight) in the first day of treatment and then received 15 doses of ARA (10 mg/kg/day; 5 doses/week) (“PZQ+ARA Treatment”).
as §2, §4

[5] = initial baseline epg < 100, mean epg 6 weeks after treatment vs mean baseline epg
[6] = initial baseline epg > 100 and < 400, mean epg 6 weeks after treatment vs mean baseline epg
[7] = initial baseline epg > 400, mean epg 6 weeks after treatment vs mean baseline epg
[8] = low infection, initial baseline epg < 100
[9] = moderate infection, initial baseline epg > 100 and < 400
[10] = low infection (baseline epg < 100)
[11] = moderate and high infection (baseline epg > 100)

Row | Structure (SMILES) | Median IFN-γ after treatment [1] [pg/mL] | % reduction in IFN-γ levels [1] [%] | Median IL-10 after treatment [2] [pg/mL] | % reduction in IL-10 levels [2] [%] | % epg reduction [3, 5] [%] | % epg reduction [3, 6] [%] | % epg reduction [3, 7] [%] | % cured [3, 8] | % cured [3, 9] | % cure rate [4, 10] [%] | % cure rate [4, 11] [%] | other results
1 | CCCCC/C=C\C/C=C\C/C=C\C/C=C\CCCC(=O)O [ARA, all-cis 5,8,11,14-eicosatetreanoic acid] | 25 | 70 | 40 | 50 | −2.6 | 49 | 65 | 50% and 50 (22/43) % | 49% and 28 (4/19) % | 77 | 50 | levels of circulating IFN-γ (result in words) ([1]; after treatment): more effective; levels of circulating IL-10 (result in words) ([2]; after treatment): more effective; epg After Week 4 ([4]; individual subjects with initial baseline epg < 100, stool 4 weeks after PZQ / 1 week after end of ARA): 12 epg and 0 epg (4×) and 144 epg and 24 epg (2×) and 20 epg and 52 epg and 48 epg and 19 epg; epg After Week 9 ([4]; individual subjects with initial baseline epg < 100, stool 9 weeks after PZQ / 6 weeks after end of ARA): 0 epg (10×) and 376 epg and 20 epg and 42 epg; epg After Week 4 ([4]; individual subjects with initial baseline epg > 100, stool 4 weeks after PZQ / 1 week after end of ARA): 240 epg and 96 epg (3×) and 749 epg and 216 epg and 84 epg and 0 epg and 48 epg and 60 epg; epg After Week 9 ([4]; individual subjects with initial baseline epg > 100, stool 9 weeks after PZQ / 6 weeks after end of ARA): 0 epg (5×) and 108 epg and 48 epg and 28 epg and 20 epg and 152 epg
2 | O=C(C1CCCCC1)N1CC(=O)N2CCc3ccccc3C2C1 (stereo not drawn) [PZQ, 2-(Cyclohexylcarbonyl)-1,2,3,6,7,11b-hexahydro-4H-pyrazino[2,1-a] isoquinolin-4-one, reference compound] | 32.5 | 60 | 36 | 42 | 50 | 70 | 81 | 57 (20/35) % | 43 (10/23) % | 71 | 67 | % cured ([3]; high infection, initial baseline epg > 400): 30 (8/26) %; % cured ([3]; high infection, initial baseline epg > 400, listed as PZQ-Placebo): 81%; % cured ([3]; low infection, initial baseline epg < 100, listed as PZQ-Placebo): 57%; % cured ([3]; moderate infection, initial baseline epg > 100 and < 400, listed as PZQ-Placebo): 70%; epg After Week 4 ([4]; individual subjects with initial baseline epg < 100, stool 4 weeks after PZQ / 1 week after end of ARA, listed as PZQ-Placebo): 8 epg and 0 epg (9×) and 5 epg (2×); epg After Week 9 ([4]; individual subjects with initial baseline epg < 100, stool 9 weeks after PZQ / 6 weeks after end of ARA, listed as PZQ-Placebo): 10 epg and 4 epg and 0 epg (10×) and 6 epg and 20 epg; epg After Week 4 ([4]; individual subjects with initial baseline epg > 100, stool 4 weeks after PZQ / 1 week after end of ARA, listed as PZQ- Placebo): 0 epg (3×) and 16 epg; epg After Week 9 ([4]; individual subjects with initial baseline epg > 100, stool 9 weeks after PZQ / 6 weeks after end of ARA, listed as PZQ- Placebo): 0 epg (4×) and 10 epg and 30 epg

From patent publication US20170172963A1, “COMPOSITIONS AND METHODS FOR THE PREVENTION AND OR TREATMENT OF SCHISTOSOMIASIS” (DSM IP ASSETS B.V., priority 2014, published 2017)
